Measurements reported in patent US20260297129A1, “PEPTIDES AS SELECTIVE IL-23 RECEPTOR INHIBITORS” (SANOFI, priority 2023, published 2026).
≈ marks a conversion by molar mass, not a printed value. Like-named read-outs stand apart in the source and are kept apart here. Numbered stars: 1 amine (or outer) side, 2 acyl side, 3 side chain; on linkers, the order of the positions; unused ones are H or OH. Bridge positions count the residues as written; N and C are the ends. Square brackets hold non-standard residues; d marks the D form. Peptide text beside a SMILES is read from it. * marks the point of attachment. Lys(Me,(CH2)4NMe(CH2)5CO) = CN(CCCCCC(=O)[*:3])CCCCN(C)CCCC[C@H](N[*:1])C(=O)[*:2]; X2 = O=C(Cc1ccc(-c2ccc(CC(=O)[*:2])cc2)cc1)[*:1]; Trp(7-Me) = Cc1cccc2c(C[C@H](N)C(=O)O)c[nH]c12; NH(CH2)9CO = O=C(CCCCCCCCCN[*:1])[*:2]; 2Nal = N[C@@H](Cc1ccc2ccccc2c1)C(=O)O; d2Nal = N[C@H](Cc1ccc2ccccc2c1)C(=O)O; C12 diacid = O=C(O)CCCCCCCCCCC(=O)*; X1 = O=C(CCCCCCCCCCCCCN[*:1])[*:2]; 3Pal = N[C@@H](Cc1cccnc1)C(=O)O; 12Ado = NCCCCCCCCCCCC(=O)O; AEEEA = NCCOCCOCCOCC(=O)O; Aun = NCCCCCCCCCCC(=O)O; Thp = NC1(C(=O)O)CCOCC1; Me2NCH2CH2 = CN(C)CC*; Aib = CC(C)(N)C(=O)O; Aoc = NCCCCCCCC(=O)O; Sar = CNCC(=O)O

What was measured:
[1] = Solubility of peptide compounds in buffer formulations (Table 5); type: physicochemical; details: target 1 mg/ml
In short: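 Peptide solids, dried from DMSO stock, were taken up at 1 mg/mL in 50 mM HCl pH 1.2, or 50 mM phosphate pH 6.5 or pH 7.4. After 2 h gentle agitation and filtration (0.45 μm), solubility was determined by UHPLC-UV peak area against a DMSO standard of known concentration.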

[2] = Chemical stability (relative purity loss) of peptide compounds in buffer formulations (Table 6); type: physicochemical; details: 2° C. and 37° C.
In short: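 Compounds at 0.5 mg/mL in 50 mM HCl pH 1.2, 50 mM phosphate pH 6.5 or pH 7.4, each with acetonitrile (3:1), stored 24 hours at 2° C and 37° C. Purity measured by UHPLC-UV before and after. Stability expressed as relative purity loss.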

[3] = system: IL-23 induced STAT3 signaling (IL-23 receptor) in HEK-Blue IL-23 cells; assay: Inhibition of IL-23 induced STAT3 signaling in HEK-Blue IL-23 cells, SEAP reporter (Table 9); type: cell-based; details: human IL23 0.25 ng/ml, overnight, read-out: Inhibition of IL-23 induced pSTAT3 (IC50 nM)
In short: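 HEK-Blue IL-23 reporter cells (10,000/well) pre-incubated 60 min at 37 °C with serially diluted peptides, then stimulated overnight with human IL-23 at 0.25 ng/ml final. SEAP in supernatant read by QUANTI-Blue, 45 min room temperature, OD 620–655 nm; dose-response curve fitting.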

[4] = Protease stability in simulated gastric fluids (FaSSGF) (Table 7); type: in vitro ADME; details: fassgf with pepsin, 60 min, 37° C., read-out: Remaining percentage of peptide compound, FaSSGF 60 (min)
In short: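 Peptides at 1 μM final were incubated at 37 °C in simulated gastric fluid with pepsin (320 mg per 100 mL SGF concentrate). Samples were quenched with ethanol (0.1% HCOOH) at 0, 60, 120 and 240 min and analysed by LC-MS/MS. Percent remaining is the peak area relative to T0 (100%).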

[5] = Buffer pH 1.1 (head; method: 50 mM HCl pH 1.2), 2 h agitation, read-out: Solubility, Buffer pH 1.1
[6] = aqueous buffer, 50 mM phosphate buffer pH 6.5, 2 h agitation, read-out: Solubility, Buffer pH 6.5
[7] = aqueous buffer, 50 mM phosphate buffer pH 7.4, 2 h agitation, read-out: Solubility, Buffer pH 7.4
[8] = 50 mM phosphate buffer pH 6.5 + acetonitrile (3:1), read-out: Chemical stability (relative purity loss), Buffer pH 6.5
[9] = 50 mM phosphate buffer pH 7.4 + acetonitrile (3:1), read-out: Chemical stability (relative purity loss), Buffer pH 7.4
[10] = 50 mm hcl + acetonitrile, Buffer pH 1.1 (head; method: 50 mM HCl pH 1.2 + acetonitrile 3:1), read-out: Chemical stability (relative purity loss), Buffer pH 1.1

Compound | solubility at 2 h [1, 5] | solubility at 2 h [1, 6] | solubility at 2 h [1, 7] | degraded at 24 h [2, 8] | degraded at 24 h [2, 9] | degraded at 24 h [2, 10] | IC50 [3] | remaining at 1 h, 1 µM [4]
CC(=O)NCCCC[C@@H]1NC(=O)[C@H](Cc2c[nH]c3c(C)cccc23)NC(=O)CCCCCN(C)CCCCN(C)CCCC[C@@H](C(=O)N[C@@H](CC(N)=O)C(=O)N[C@@H](Cc2cccnc2)C(=O)N(C)CC(N)=O)NC(=O)C(C)(C)NC(=O)[C@H](Cc2ccc3ccccc3c2)NC(=O)[C@H](Cc2ccc(OCCN(C)C)cc2)NC(=O)C2(CCOCC2)NC1=O [compound 18] ([Trp(7-Me)]K(Ac)[Thp]Y(Me2NCH2CH2)[2Nal][Aib][Lys(Me,(CH2)4NMe(CH2)5CO)]N[3Pal][Sar]-NH2; lactam N-7) | ≥ 1060 µg/mL | ≥ 980 µg/mL | ≥ 990 µg/mL | 0% | 0% | 3.8% | 0.47 nM | 100%
Cc1cccc2c(C[C@@H]3NC(=O)CCCCCCCNC(=O)CC[C@@H](C(=O)N[C@@H](CC(N)=O)C(=O)N[C@@H](Cc4cccnc4)C(=O)N(C)CC(N)=O)NC(=O)C(C)(C)NC(=O)[C@H](Cc4ccc5ccccc5c4)NC(=O)[C@H](Cc4ccc(OCCN(C)C)cc4)NC(=O)C4(CCOCC4)NC(=O)[C@H](CC(C)C)NC3=O)c[nH]c12 [compound 9] ([Aoc][Trp(7-Me)]L[Thp]Y(Me2NCH2CH2)[2Nal][Aib]EN[3Pal][Sar]-NH2; lactam N-8) | ≥ 1160 µg/mL | 260 µg/mL (≈ 167 µM) | 80 µg/mL (≈ 51.3 µM) | 0% | 0% | 5.6% | 10.8 nM | 59%
Cc1cccc2c(C[C@@H]3NC(=O)CCCCCCCCCCNC(=O)CC[C@@H](C(=O)N[C@@H](CC(N)=O)C(=O)N[C@@H](Cc4cccnc4)C(=O)N(C)CC(N)=O)NC(=O)C(C)(C)NC(=O)[C@@H](Cc4ccc5ccccc5c4)NC(=O)[C@H](Cc4ccc(OCCN(C)C)cc4)NC(=O)C4(CCOCC4)NC(=O)[C@H](CCC(N)=O)NC3=O)c[nH]c12 [compound 4] ([Aun][Trp(7-Me)]Q[Thp]Y(Me2NCH2CH2)[d2Nal][Aib]EN[3Pal][Sar]-NH2; lactam N-8) | ≥ 970 µg/mL | 270 µg/mL (≈ 167 µM) | 60 µg/mL (≈ 37.1 µM) | 0% | 0% | 6.3% | 0.14 nM | 80%
Cc1cccc2c(C[C@@H]3NC(=O)COCCOCCOCCNC(=O)CC[C@@H](C(=O)N[C@@H](CC(N)=O)C(=O)N[C@@H](Cc4cccnc4)C(=O)N(C)CC(N)=O)NC(=O)C(C)(C)NC(=O)[C@H](Cc4ccc5ccccc5c4)NC(=O)[C@H](Cc4ccc(OCCN(C)C)cc4)NC(=O)C4(CCOCC4)NC(=O)[C@H](CCC(N)=O)NC3=O)c[nH]c12 [compound 14] ([AEEEA][Trp(7-Me)]Q[Thp]Y(Me2NCH2CH2)[2Nal][Aib]EN[3Pal][Sar]-NH2; lactam N-8) | ≥ 1200 µg/mL | ≥ 1280 µg/mL | ≥ 1270 µg/mL | 0% | 0% | 8.6% | 1.21 nM | 100%
Cc1cccc2c(C[C@@H]3NC(=O)CCCCCCCCCNC(=O)CC[C@@H](C(=O)N[C@@H](CC(N)=O)C(=O)N[C@@H](Cc4cccnc4)C(=O)N(C)CC(N)=O)NC(=O)C(C)(C)NC(=O)[C@H](Cc4ccc5ccccc5c4)NC(=O)[C@H](Cc4ccc(OCCN(C)C)cc4)NC(=O)C4(CCOCC4)NC(=O)[C@H](CC(C)C)NC3=O)c[nH]c12 [compound 8] ([NH(CH2)9CO][Trp(7-Me)]L[Thp]Y(Me2NCH2CH2)[2Nal][Aib]EN[3Pal][Sar]-NH2; lactam N-8) | 20 µg/mL (≈ 12.6 µM) | < 10 µg/mL | < 10 µg/mL | 0% | 0% | 6.2% | 1.85 nM | 7%
Cc1cccc2c(C[C@@H]3NC(=O)CCCCCCCCCCC(=O)NCCCC[C@@H](C(=O)N[C@@H](CC(N)=O)C(=O)N[C@@H](Cc4cccnc4)C(=O)N(C)CC(N)=O)NC(=O)C(C)(C)NC(=O)[C@H](Cc4ccc5ccccc5c4)NC(=O)[C@H](Cc4ccc(OCCN(C)C)cc4)NC(=O)C4(CCOCC4)NC(=O)[C@H](CCC(N)=O)NC3=O)c[nH]c12 [compound 10] ([Trp(7-Me)]Q[Thp]Y(Me2NCH2CH2)[2Nal][Aib]KN[3Pal][Sar]-NH2; linker N-7 via C12 diacid) | ≥ 890 µg/mL | 240 µg/mL (≈ 146 µM) | 70 µg/mL (≈ 42.6 µM) | 0% | 0% | 6.1% | 0.35 nM | 88%
Cc1cccc2c(C[C@@H]3NC(=O)Cc4ccc(cc4)-c4ccc(cc4)CC(=O)NCCCC[C@@H](C(=O)N[C@@H](CC(N)=O)C(=O)N[C@@H](Cc4cccnc4)C(=O)N(C)CC(N)=O)NC(=O)C(C)(C)NC(=O)[C@H](Cc4ccc5ccccc5c4)NC(=O)[C@H](Cc4ccc(OCCN(C)C)cc4)NC(=O)C4(CCOCC4)NC(=O)[C@H](CCC(N)=O)NC3=O)c[nH]c12 [compound 15] ([Trp(7-Me)]Q[Thp]Y(Me2NCH2CH2)[2Nal][Aib]KN[3Pal][Sar]-NH2; linker N-7 via X2) | ≥ 990 µg/mL | ≥ 920 µg/mL | ≥ 920 µg/mL | 0% | 0.4% | 7.1% | 12 nM | 87%
Cc1cccc2c(C[C@@H]3NC(=O)CCCCCCCCCCCCCNC(=O)CC[C@@H](C(=O)N[C@@H](CC(N)=O)C(=O)N[C@@H](Cc4cccnc4)C(=O)N(C)CC(N)=O)NC(=O)C(C)(C)NC(=O)[C@H](Cc4ccc5ccccc5c4)NC(=O)[C@H](Cc4ccc(OCCN(C)C)cc4)NC(=O)C4(CCOCC4)NC(=O)[C@H](CCC(N)=O)NC3=O)c[nH]c12 [compound 1] ([X1][Trp(7-Me)]Q[Thp]Y(Me2NCH2CH2)[2Nal][Aib]EN[3Pal][Sar]-NH2; lactam N-8) | ≥ 920 µg/mL | < 10 µg/mL | < 10 µg/mL | 0% | 0% | 6.2% | 1.14 nM | 77%
Cc1cccc2c(C[C@@H]3NC(=O)CCCCCCCCCCNC(=O)CC[C@@H](C(=O)N[C@@H](CC(N)=O)C(=O)N[C@@H](Cc4cccnc4)C(=O)N(C)CC(N)=O)NC(=O)C(C)(C)NC(=O)[C@H](Cc4ccc5ccccc5c4)NC(=O)[C@H](Cc4ccc(OCCN(C)C)cc4)NC(=O)C4(CCOCC4)NC(=O)[C@H](CC(C)C)NC3=O)c[nH]c12 [compound 7] ([Aun][Trp(7-Me)]L[Thp]Y(Me2NCH2CH2)[2Nal][Aib]EN[3Pal][Sar]-NH2; lactam N-8) | 20 µg/mL (≈ 12.5 µM) | < 10 µg/mL | < 10 µg/mL | 0% | 0.5% | 3.9% | 1.73 nM | 6%
CC(=O)NCCCC[C@@H]1NC(=O)[C@H](Cc2c[nH]c3c(C)cccc23)NC(=O)[C@@H](NC(C)=O)CCCCN(C)CCCCN(C)CCCC[C@@H](C(=O)N[C@@H](CC(N)=O)C(=O)N[C@@H](Cc2cccnc2)C(=O)N(C)CC(N)=O)NC(=O)C(C)(C)NC(=O)[C@@H](Cc2ccc3ccccc3c2)NC(=O)[C@H](Cc2ccc(OCCN(C)C)cc2)NC(=O)C2(CCOCC2)NC1=O [compound 13] | ≥ 1190 µg/mL | ≥ 1180 µg/mL | ≥ 1230 µg/mL | 0% | 0% | 3.1% | 0.17 nM | 90%
Cc1cccc2c(C[C@@H]3NC(=O)CCCCCCCCCCCNC(=O)CC[C@@H](C(=O)N[C@@H](CC(N)=O)C(=O)N[C@@H](Cc4cccnc4)C(=O)N(C)CC(N)=O)NC(=O)C(C)(C)NC(=O)[C@H](Cc4ccc5ccccc5c4)NC(=O)[C@H](Cc4ccc(OCCN(C)C)cc4)NC(=O)C4(CCOCC4)NC(=O)[C@H](CCC(N)=O)NC3=O)c[nH]c12 [compound 2] ([12Ado][Trp(7-Me)]Q[Thp]Y(Me2NCH2CH2)[2Nal][Aib]EN[3Pal][Sar]-NH2; lactam N-8) | ≥ 1140 µg/mL | 220 µg/mL (≈ 135 µM) | 10 µg/mL (≈ 6.13 µM) | 0% | 0.1% | 6.4% | 0.28 nM | 73%
